In series [1] the test system is Stimulator of interferon genes protein (Homo sapiens), Q86WV6 [UNDEFINED MUTATION]. Conditions: dose 50.0 µM.
Series [2] concerns the target T1, Stimulator of interferon genes protein (Homo sapiens, UniProt Q86WV6). Kind of series: Agonist activity at human STING in human THP1-Blue ISG cells incubated for 24 hrs in presence of PMA by luciferase reporter assay. It counts as cell-based. (In general: In a reporter assay the amount or activity of a reporter protein is the signal.)
Series [3] has as its target T2, Stimulator of interferon genes protein (Mus musculus, UniProt Q3TBT3).
T2 sequence (Q3TBT3 whole entry): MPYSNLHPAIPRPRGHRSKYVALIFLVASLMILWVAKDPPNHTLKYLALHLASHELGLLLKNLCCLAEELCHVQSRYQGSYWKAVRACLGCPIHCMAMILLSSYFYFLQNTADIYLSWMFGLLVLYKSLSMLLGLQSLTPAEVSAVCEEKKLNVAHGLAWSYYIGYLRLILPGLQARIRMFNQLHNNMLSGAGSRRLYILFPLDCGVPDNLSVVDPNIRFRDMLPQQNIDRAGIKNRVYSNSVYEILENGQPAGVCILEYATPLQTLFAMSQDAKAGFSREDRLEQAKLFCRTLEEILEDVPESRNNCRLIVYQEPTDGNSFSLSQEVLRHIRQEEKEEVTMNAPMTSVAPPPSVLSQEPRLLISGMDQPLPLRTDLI
In words: Agonist activity at mouse STING in mouse RAW-Lucia ISG cells incubated for 24 hrs in presence of PMA by luciferase reporter assay. The class given is cell-based.

Series [4] concerns the target T2, Stimulator of interferon genes protein. In words: Agonist activity at mouse STING in STING knockout mouse RAW-Lucia ISG cells incubated for 24 hrs in presence of PMA by luciferase reporter assay. It counts as cell-based.
Series [5] has as its target T1, Stimulator of interferon genes protein. In words: Agonist activity at human STING in STING knockout human THP1-Blue ISG cells incubated for 24 hrs in presence of PMA by luciferase reporter assay. It counts as cell-based.
Series [6] in a line: Toxicity in C57BL/6 mouse implanted with mouse B16-F10 cells assessed as body weight loss at 10 mg/kg, […] measured for 14 days. It counts as organism-based. Conditions: in vivo, 336 h, time 14 day.
The nature of series [7]: Volume of distribution at steady state in C57BL/6 mouse at 10 mg/kg, iv qd measured upto 24 hrs by LC-MS/MS analysis. It counts as ADME, organism-based. The conditions noted are these: in vivo, read-out: Vdss.
A short description of series [8]: Half life in C57BL/6 mouse at 10 mg/kg, iv qd measured upto 24 hrs by LC-MS/MS analysis. It counts as ADME, organism-based. Conditions: in vivo.
The target of series [9] is T2, Stimulator of interferon genes protein. Kind of series: Agonist activity at mouse 6His-tagged recombinant STING CTD (144 to 378 residues) expressed in Escherichia coli BL21 (DE3) incubated for 10 mins by FRET assay.
A short description of series [10]: AUC(0 to infinity) in C57BL/6 mouse at 10 mg/kg, iv qd measured upto 24 hrs by LC-MS/MS analysis. It counts as ADME, organism-based. The conditions noted are these: in vivo. On the set-up: time < 24 hrs, dose 10 mg/kg, route iv.
For series [11], the system named is THP-1. Kind of series: Cytotoxicity against human THP-1 cells assessed as inhibition of cell growth upto 40 uM measured after 24 hrs in presence of PMA by CellTiter-Glo viability assay. The class given is toxicity, cell-based. The conditions noted are these: thp-1, 24 h. Background: In ATP-based viability assays light output follows the ATP content of the culture.

Series [12] is described as follows: AUC(0 to t) in C57BL/6 mouse at 10 mg/kg, iv qd measured upto 24 hrs by LC-MS/MS analysis. The class given is ADME, organism-based. Also on record: dose 10 mg/kg, time < 24 hrs, route iv. Conditions: in vivo.
The nature of series [13]: MRT(0 to infinity) in C57BL/6 mouse at 10 mg/kg, iv qd measured upto 24 hrs by LC-MS/MS analysis. The class given is ADME, organism-based. Conditions: in vivo.
The nature of series [14]: Clearance in C57BL/6 mouse at 10 mg/kg, iv qd measured upto 24 hrs by LC-MS/MS analysis. The conditions noted are these: in vivo. It counts as ADME, organism-based.
Series [15] concerns B16-F10. In words: Antitumor activity against mouse B16-F10 cells implanted in C57BL/6 mouse assessed tumor growth inhibition at 30 mg/kg, ip qd measured for 14 days. The class given is functional, organism-based. The conditions noted are these: time 14.0 day.
The subject of series [16] is B16-F10. In words: Antitumor activity against mouse B16-F10 cells implanted in C57BL/6 mouse assessed tumor growth inhibition at 10 mg/kg, ip qd measured for 14 days. It counts as functional, organism-based. Conditions: time 14.0 day.
In series [17] the target is T3, Stimulator of interferon genes protein (Mus musculus) (UniProt Q3TBT3).
T3 sequence (whole entry): T2 sequence (Q3TBT3 whole entry)
In words: Binding affinity to mouse 6His-tagged recombinant STING CTD (144 to 378 residues) expressed in Escherichia coli BL21 (DE3) assessed as thermal stability at 50 uM by measuring change in melting temperature by SYPRO orange dye based analysis. Conditions: filed as agonist.

The structures appear in SMILES notation. Activity calls are given as the source filed them. The rule behind the calls is not given here.

In general, ΔTm refers to the change in melting temperature against a reference sample. As usually defined, the EC50 is the concentration giving half of the maximal effect. Broadly, the half-life is the time in which the quantity being followed falls by half. A higher half-life goes with slow decline. The IC50 is the concentration that gives 50% inhibition. Usually AUC(0-inf) stands for total exposure, with the tail of the curve extrapolated. What is called AUC(0-t) is the area under the concentration-time curve up to a stated or last time point. As usually defined, the MRT inf is the average time that molecules of a dose stay in the body. As usually defined, the clearance is a measure of how efficiently the substance is removed, as volume per time. A high value points to efficient removal.

T1 sequence (Q86WV6 whole entry): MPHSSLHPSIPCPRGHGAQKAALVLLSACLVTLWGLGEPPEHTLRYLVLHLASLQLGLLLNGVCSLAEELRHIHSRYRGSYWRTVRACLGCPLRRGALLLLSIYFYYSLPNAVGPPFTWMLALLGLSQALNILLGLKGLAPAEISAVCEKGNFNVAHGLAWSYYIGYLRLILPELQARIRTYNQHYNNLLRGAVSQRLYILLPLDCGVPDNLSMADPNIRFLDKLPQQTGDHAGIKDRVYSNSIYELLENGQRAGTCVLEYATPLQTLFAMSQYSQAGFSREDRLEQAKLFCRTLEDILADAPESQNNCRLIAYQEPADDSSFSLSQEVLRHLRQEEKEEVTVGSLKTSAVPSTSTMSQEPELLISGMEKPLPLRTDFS
Chain of Stimulator of interferon genes protein (Homo sapiens), Q86WV6 [UNDEFINED MUTATION] (Q86WV6 whole entry, looked up, change not shown): as the sequence (Q86WV6 whole entry) above

Consider `O=C(Nc1ccccc1C(=O)O)c1ccc(-c2ccnnc2)nn1`, for which the ΔTm in series [1] (filed as agonist) amounted to 0.5 °C. Also, the EC50 in [2] was above 100 µM.

Consider `O=C(Nc1cc(F)c(F)cc1C(=O)O)c1ccc(-c2cnsc2)nn1`, for which the ΔTm in series [1] (filed as agonist) worked out at 3.5 °C. Moreover, the EC50 in [2] came to 17.6 µM.

`O=C(Nc1cc(F)c(F)cc1C(=O)O)c1ccc(-c2cccnc2)nn1`: the ΔTm in series [1] stood at 0 °C. Also, the EC50 in [2] came out at 32.7 µM.

For the compound `N#Cc1ccn(-c2ccc(C(=O)Nc3cc(F)c(F)cc3C(=O)O)nn2)c1`, the ΔTm in series [1] (filed as agonist) is 3.5 °C. For the same compound, the EC50 in [2] turned out to be 10.5 µM.

For `COc1cc2cc(C(=O)CCC(=O)O)sc2cc1OC`, the EC50 in series [3] is 34.5 µM; in series [4] it was above 200 µM; in series [5], above 100 µM; in [2], 3.51 µM.

As to `Cn1cc(-c2ccc(C(=O)Nc3cc(F)c(F)cc3C(=O)O)nn2)cn1`, the ΔTm in series [1] (filed as agonist) came to 0 °C. The EC50 in [2] amounted to 20.6 µM.

In the case of `O=C(Nc1cc(F)c(F)cc1C(=O)O)c1ccc(N2CCOCC2)nn1`, in series [1], the ΔTm was 0 °C. Besides, in series [2], the EC50 is above 100 µM.

`O=C(Nc1cc(F)c(F)cc1C(=O)O)c1ccc(-c2ccnnc2)nn1`: the ΔTm in [1] (filed as agonist) stood at 6 °C. Further, the EC50 in series [2] came to 17.9 µM.

On to `C#Cc1cc(NC(=O)c2ccc(-c3ccnnc3)nn2)c(C(=O)O)cc1F`, for which the EC50 in series [3] was 12.9 µM; in series [4], above 200 µM. In addition, the Activity entry in [6] and in series [11] was “Non-Toxic” in each case. Also, the Vd in series [7] turned out to be 2.39 L/kg. In [8], this compound had a half-life of 2.1 h. In addition, the IC50 in series [9] worked out at 0.96 µM. The AUC(0-inf) in series [10] was determined as 4410 ng·h/mL. Further, the AUC(0-t) at 24 h in series [12] came out at 4390 ng·h/mL. This compound registered an MRT inf in series [13] of 1.06 h. In series [14], the clearance was found to be 37.8 mL/min/kg.

For the compound `O=C(Nc1cc(F)c(F)cc1C(=O)O)c1ccc(-n2cncn2)nn1`, the ΔTm in [1] (filed as agonist) was found to be 1.5 °C. Moreover, the EC50 in [2] worked out at 11.5 µM.

Turning to `O=C(Nc1cc(Br)ccc1C(=O)O)c1ccc(-c2ccnnc2)nn1`, the EC50 in series [3] and in [4] was above 200 µM throughout. Moreover, the Activity entry in [11] is reported as “Non-Toxic”.

As to `CC(=O)c1ccn(-c2ccc(C(=O)Nc3cc(F)c(F)cc3C(=O)O)nn2)c1`, the ΔTm in series [1] was 0 °C. In series [2], the EC50 was 29.9 µM.

For the compound `CCCn1c(NC(=O)c2cc(C)nn2CC)nc2cc(C(N)=O)cc(OC3COC3)c21`, the EC50 in [3] is 5.22 µM; in series [4] it was above 200 µM. Moreover, in series [7], the Vd was 2.38 L/kg. The half-life in series [8] is 1.13 h. Moreover, the IC50 in [9] stood at 4.35 µM. The same compound gave an AUC(0-inf) in [10] of 3830 ng·h/mL. The Activity entry in [11] is recorded as “Toxic”. In series [12], this compound yielded an AUC(0-t) at 24 h of 3820 ng·h/mL. Besides, the MRT inf in series [13] was determined as 0.894 h. In series [14], this compound returned a clearance of 43.8 mL/min/kg.

With `Cc1cncn1-c1ccc(C(=O)Nc2cc(F)c(F)cc2C(=O)O)nn1`, the ΔTm in series [1] amounted to 0 °C. For the same compound, the EC50 in series [2] worked out at 22.8 µM.

With `O=C(Nc1cc(F)c(F)cc1C(=O)O)c1ccc(-n2ccnc2)nn1`, in [15], the inhibition entry is “Active”. Besides, in [4], the EC50 was above 200 µM. In addition, the Vd in series [7] turned out to be 3.62 L/kg. In series [8], this compound gave a half-life of 1.82 h. In addition, the IC50 in series [9] was determined as 1.6 µM. The inhibition entry in series [16] was “inactive”. In [10], the AUC(0-inf) amounted to 1370 ng·h/mL. In addition, in [17], the ΔTm turned out to be 9 °C. Also, the AUC(0-t) at 24 h in series [12] was determined as 1360 ng·h/mL. In addition, in [13], the MRT inf was determined as 0.495 h. In addition, the clearance in [14] was 123 mL/min/kg.

With `O=C(Nc1cc(C(F)(F)F)ccc1C(=O)O)c1ccc(-c2ccnnc2)nn1`, in series [1], the ΔTm came to 0 °C. In addition, in series [2], the EC50 is above 100 µM.

Take `O=C(Nc1cc(F)c(F)cc1C(=O)O)c1ccc(-n2cccc2)nn1`: in [1] (filed as agonist), the ΔTm came to 0.5 °C. The EC50 in [2] amounted to 33.6 µM.

On to `O=C(Nc1cc(F)c(F)cc1C(=O)O)c1ccc(-c2cncnc2)nn1`, for which the ΔTm in series [1] was found to be 0 °C. Moreover, the EC50 in [2] amounted to 32.3 µM.

With `O=C(Nc1cc(Br)c(F)cc1C(=O)O)c1ccc(-c2ccnnc2)nn1`, the EC50 is 42 µM in series [3] and above 200 µM in series [4]. Moreover, the IC50 in series [9] amounted to 1.9 µM. The Activity entry in series [11] is “Non-Toxic”.

Take `COc1ccc(C(=O)O)c(NC(=O)c2ccc(-c3ccnnc3)nn2)c1`: the ΔTm in series [1] (filed as agonist) came to 1.5 °C. Further, the EC50 in series [2] turned out to be 5.96 µM.

For `O=C(Nc1cc(F)c(F)cc1C(=O)O)c1ccc(N2CCCC2)nn1`, in series [1] (filed as agonist), the ΔTm was -1 °C. Besides, the EC50 in series [2] is above 100 µM.

In the case of `O=C(Nc1cc(Cl)c(F)cc1C(=O)O)c1ccc(-c2ccnnc2)nn1`, the EC50 is 35.3 µM in [3] and above 200 µM in series [4]. The IC50 in series [9] amounted to 0.93 µM. For the same compound, the Activity entry in [11] was “Non-Toxic”.

Take `O=C(Nc1cc(F)c(F)cc1C(=O)O)c1ccc(Nc2cn[nH]c2)nn1`: the ΔTm in series [1] (filed as agonist) came out at 1 °C. In addition, in [2], the EC50 was 22.3 µM.

Regarding `O=C(Nc1ccc(Br)cc1C(=O)O)c1ccc(-c2ccnnc2)nn1`, the ΔTm in series [1] (filed as agonist) worked out at 3.5 °C. In [2], the EC50 worked out at 4.5 µM.

Turning to `COc1cc(NC(=O)c2ccc(-c3ccnnc3)nn2)c(C(=O)O)cc1OC`, in [1] (filed as agonist), the ΔTm is 0.5 °C. Further, the EC50 in series [2] was determined as 21.3 µM.

Consider `O=C(Nc1ccc(C(F)(F)F)cc1C(=O)O)c1ccc(-c2ccnnc2)nn1`, for which the ΔTm in series [1] (filed as agonist) was determined as 3.5 °C. Further, in [2], the EC50 was determined as 1940 µM.

Turning to `COc1ccc(NC(=O)c2ccc(-c3ccnnc3)nn2)c(C(=O)O)c1`, the ΔTm in series [1] is 0 °C. Besides, in [2], the EC50 was above 100 µM.

As for `O=C(Nc1cc(F)c(F)cc1C(=O)O)c1ccc(-c2ccoc2)nn1`, in [1], the ΔTm is 0 °C. Besides, the EC50 in series [2] amounted to 38 µM.

The values are drawn from ChEMBL document CHEMBL5316347, “Design, Synthesis, and Biological Evaluation of Bipyridazine Derivatives as Stimulator of Interferon Genes (STING) Receptor Agonists” (J Med Chem, 2023).
